Results taken from US12297190B2, “Modulators of STING (stimulator of interferon genes)” (PFIZER INC., priority 2019, dated 2025).
Structures can show the parent of a compound that is named as a salt.

What was measured:
STING [1] = biological target: T1, STING (Homo sapiens, UniProt Q86WV6, G230A/H232R/R293Q/R71H); assay: Interferon-β induction: THP-1 Lucia ISG reporter cell line; type: cell-based; conditions: THP-1 Lucia ISG cells, 24 hours incubation, luciferase reporter; read-out: THP-1 Lucia ISG Cells IFN-β EC50
T1 construct: host or cells: THP-1 and THP-1 Lucia ISG cells
T1 sequence (Q86WV6 whole entry R71H/G230A/H232R/R293Q): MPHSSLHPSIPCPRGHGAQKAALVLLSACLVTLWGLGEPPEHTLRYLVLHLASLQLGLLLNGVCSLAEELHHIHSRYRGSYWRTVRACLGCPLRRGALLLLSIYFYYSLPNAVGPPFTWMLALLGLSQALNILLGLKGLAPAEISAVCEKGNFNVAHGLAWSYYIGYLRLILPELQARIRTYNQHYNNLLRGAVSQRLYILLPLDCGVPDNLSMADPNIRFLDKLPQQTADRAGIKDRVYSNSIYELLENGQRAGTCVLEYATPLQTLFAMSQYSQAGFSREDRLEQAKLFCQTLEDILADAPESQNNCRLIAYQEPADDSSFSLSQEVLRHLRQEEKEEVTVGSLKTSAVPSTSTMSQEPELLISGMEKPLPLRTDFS
Experimental: Interferon-β Induction: THP-1 ISG Reporter Cell Line
THP-1 Lucia™ ISG cells (InvivoGen) express the secreted luciferase “Lucia” reporter gene under the control of an IRF-inducible composite promotor comprised of five interferon response elements. THP-1 Lucia™ ISG cells were grown in RPMI media plus 2 mM L-glutamine, 10% fetal bovine serum, and 0.5% Pen-Strep. Hygromycin B and Zeocin were present to maintain stable transfection. 10^4 cells were seeded in 96-well plates and incubated overnight 37° C., 5% CO2. 50 μL of serial diluted compounds in media (final 0.5% DMSO) was and incubated for an additional 24 hours. After incubation, the plates were centrifuged at 2000 rpm for 10 min. 50 μl of cell culture supernatant of each well was transferred to a white, opaque 96-well plate. One pouch of QUANTI-Luc™ (InvivoGen) powder was prepared in 25 mL of endotoxin-free water and 100 μL of prepared warm QUANTI-Luc solution were added to each well containing the supernatant. The luminescence signal was measured using a Perkin-Elmer Envision microplate reader. Data were normalized to “% effect” with a positive control STING agonist that was known to maximize the luciferase signal and the negative control DMSO.

R232-STING = R232-STING (Homo sapiens, UniProt Q86WV6, H232R); assay: biochemical
Sequence of R232-STING (Q86WV6 155-341 H232R): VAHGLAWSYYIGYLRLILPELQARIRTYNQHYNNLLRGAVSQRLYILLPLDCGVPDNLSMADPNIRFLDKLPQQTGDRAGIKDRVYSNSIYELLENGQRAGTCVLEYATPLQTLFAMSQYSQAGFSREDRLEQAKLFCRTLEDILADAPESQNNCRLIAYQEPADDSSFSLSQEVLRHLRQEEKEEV

STING [2] = biological target: T1, STING; assay: Phosphorylation of IRF3: THP-1 cell ELISA; type: cell-based; conditions: THP-1 cells, 3 hours incubation, phospho-IRF3 ELISA; read-out: THP-1 CELL P-IRF3 EC50
Experimental: Phosphorylation of IRF3: THP-1 Cell ELISA
STING activation results in recruitment of TBK1 and phosphorylation of IRF3 transcription factor before induction of type I interferons. THP-1 cells (InvivoGen) were grown in RPMI media plus 2 mM L-glutamine, 10% fetal bovine serum, and 0.5% Pen-Strep. 10^4 cells were seeded in 96-well plates and incubated overnight 37° C., 5% CO2. Compounds serial diluted compounds in media (final 0.5% DMSO) were added to the cells and incubated for an additional 3 hours. After incubation, the plates were centrifuged at 2000 rpm for 5 min. The cells were then lysed in 100 μl RIPA buffer and vortexed for 30 minutes at room temperature. 25 μl of lysate was then transferred to clear polystyrene High Bind plates that had been previously coated with mouse anti-human IRF-3 capture antibody (BD Pharmigen), and allowed to incubate at 4° C. for 16 hours. The plates were then washed and incubated with rabbit anti-phospho-IRF3 detection antibody (Cell Signaling Technologies) for 1.5 hours at room temperature. Finally, an HRP-linked secondary antibody (Cell Signaling Technologies) was added for 30 min before the Glo Substrate Reagent (R&D Systems) was used generate the luminescent signal. The signal was measured using a Perkin-Elmer Envision microplate reader. Data were normalized to “% effect” with a positive control STING agonist that was known to maximize the phosphorylated IRF3 signal and the negative control was DMSO.

SMILES | EC50 (STING [1]) [µM] | Ki (R232-STING) [µM] | EC50 (STING [2]) [µM]
CCn1nc(C)cc1-c1nc(-c2nc(C(N)=O)cc3c2cnn3C)c(C(C)N)s1 (racemic) [Compound W-7, 1-(4-(6-carbamoyl-1-methyl-1H-pyrazolo[4,3-c]pyridin-4-yl)-2-(1-ethyl-3-methyl-1H-pyrazol-5-yl)thiazol-5-yl)ethan-1-aminium trifluoroacetate] | 1.87 | 0.0334 | 1.5
CCn1nc(C)cc1-c1nnc(-c2cc(C(N)=O)cc3c2cnn3CC[C@H](C)C2CCNCC2)[nH]1 (racemic) [YY18, 4-[5-(1-ethyl-3-methyl-1H-pyrazol-5-yl)-4H-1,2,4-triazol-3-yl]-1-[(3S)-3-(piperidin-4-yl)butyl]-1H-indazole-6-carboxamide] | > 100 | 0.437 | > 100
CCn1nc(C)cc1-c1nc(-c2nc(C(N)=O)cc3c2cnn3C)c(C(C)N)s1 (single isomer, unassigned) [Example W02, 4-[5-(1-aminoethyl)-2-(1-ethyl-3-methyl-1H-pyrazol-5-yl)-1,3-thiazol-4-yl]-1-methyl-1H-pyrazolo[4,3-c]pyridine-6-carboxamide] | 2.46 | 0.0675 | 2.32
CCn1nc(C)cc1-c1n[nH]c(-c2cc(C(N)=O)cc3c2cnn3C)n1 [Example A01, 4-[3-(1-ethyl-3-methyl-1H-pyrazol-5-yl)-1H-1,2,4-triazol-5-yl]-1-methyl-1H-indazole-6-carboxamide] | 1.02 | 0.0251 | 0.92
CCn1nc(C)cc1-c1n[nH]c(-c2cc(C(N)=O)cc3c2ccn3C)n1 [Example A02, 4-[3-(1-ethyl-3-methyl-1H-pyrazol-5-yl)-1H-1,2,4-triazol-5-yl]-1-methyl-1H-indole-6-carboxamide] | 7.48 | 0.0294 | 6.68
CCn1nc(CO)cc1-c1nc(-c2nc(C(N)=O)cc3c2cnn3C)n(C)n1 [Example AB01, 4-{3-[1-ethyl-3-(hydroxymethyl)-1H-pyrazol-5-yl]-1-methyl-1H-1,2,4-triazol-5-yl}-1-methyl-1H-pyrazolo[4,3-c]pyridine-6-carboxamide] | 5.01 | 0.0236 | 3.75
Cc1cc(-c2nc(-c3nc(C(N)=O)cc4c3cnn4C)n(C)n2)n(CCCO)n1 [Example AD01, 4-{3-[1-(3-hydroxypropyl)-3-methyl-1H-pyrazol-5-yl]-1-methyl-1H-1,2,4-triazol-5-yl}-1-methyl-1H-pyrazolo[4,3-c]pyridine-6-carboxamide] | 0.08 | 0.0022 | 0.08
CCn1cc(C)c(O)c1-c1nc(-c2nc(C(N)=O)cc3c2cnn3C)cs1 [Example AG01, 4-[2-(1-ethyl-3-hydroxy-4-methyl-1H-pyrrol-2-yl)-1,3-thiazol-4-yl]-1-methyl-1H-pyrazolo[4,3-c]pyridine-6-carboxamide] | 0.34 | 0.0083 | 0.24
CCn1nc(C)cc1-c1n[nH]c(-c2cc(C(N)=O)cc3c2cnn3CC)n1 [Example B01, 1-ethyl-4-[3-(1-ethyl-3-methyl-1H-pyrazol-5-yl)-1H-1,2,4-triazol-5-yl]-1H-indazole-6-carboxamide] | 23.2 | 0.43 | 25.1
CCn1nc(C)cc1-c1n[nH]c(-c2cc(C(N)=O)cc3nn(C)cc23)n1 [Example C01, 4-[3-(1-ethyl-3-methyl-1H-pyrazol-5-yl)-1H-1,2,4-triazol-5-yl]-2-methyl-2H-indazole-6-carboxamide] | 45.3 | 0.23 | ≥ 100
CCn1nc(C)c(Cl)c1-c1nc(-c2cc(C(N)=O)cc3c2cnn3C)n[nH]1 [Example C04, 4-[5-(4-chloro-1-ethyl-3-methyl-1H-pyrazol-5-yl)-1H-1,2,4-triazol-3-yl]-1-methyl-1H-indazole-6-carboxamide] | 0.24 | 0.0133 | 0.25
CCn1nc(C)cc1-c1nc(-c2cc(C(N)=O)cc3c2cnn3C)nn1COP(=O)(O)O [Example N01, [3-(6-carbamoyl-1-methyl-1H-indazol-4-yl)-5-(1-ethyl-3-methyl-1H-pyrazol-5-yl)-1H-1,2,4-triazol-1-yl]methyl dihydrogenphosphate] | 76.9 | – | ≥ 100

The remaining compounds from weak to strong by EC50 (STING [1]), led by results:

EC50 (STING [1]) [µM] | Ki (R232-STING) [µM] | EC50 (STING [2]) [µM] | SMILES
92.8 | 0.277 | 96.7 | CCn1nc(C)c(F)c1-c1nc(-c2cc(C(N)=O)cc3c2cnn3CCCN2CCOCC2)n[nH]1 [Example C06, 4-[5-(1-ethyl-4-fluoro-3-methyl-1H-pyrazol-5-yl)-1H-1,2,4-triazol-3-yl]-1-[3-(morpholin-4-yl)propyl]-1H-indazole-6-carboxamide]
27.4 | 0.165 | 31.6 | CCn1nc(C)c(F)c1-c1nc(-c2cc(C(N)=O)cc3c2cnn3CCN2CCOCC2)n[nH]1 [Example C05, 4-[5-(1-ethyl-4-fluoro-3-methyl-1H-pyrazol-5-yl)-1H-1,2,4-triazol-3-yl]-1-[2-(morpholin-4-yl)ethyl]-1H-indazole-6-carboxamide]
13.2 | 0.134 | 11.8 | CCn1nc(C)cc1-c1nc(-c2nc(C(N)=O)cc3c2cnn3C)c(CNC)s1 [Example AA01, 4-{2-(1-ethyl-3-methyl-1H-pyrazol-5-yl)-5-[(methylamino)methyl]-1,3-thiazol-4-yl}-1-methyl-1H-pyrazolo[4,3-c]pyridine-6-carboxamide]
8.93 | 0.0081 | 10.9 | Cc1cc(-c2n[nH]c(-c3cc(C(N)=O)cc4c3cnn4C)n2)n(CCC(=O)O)n1 [Example C03, 3-{5-[5-(6-carbamoyl-1-methyl-1H-indazol-4-yl)-1H-1,2,4-triazol-3-yl]-3-methyl-1H-pyrazol-1-yl}propanoic acid]
6.33 | 0.046 | 8 | CCn1cc2c(-c3nc(-c4cc(C)nn4CC)n[nH]3)cc(C(N)=O)cc2n1 [Example B02, 2-ethyl-4-[3-(1-ethyl-3-methyl-1H-pyrazol-5-yl)-1H-1,2,4-triazol-5-yl]-2H-indazole-6-carboxamide]
6.25 | 0.184 | > 11.1 | Cc1nn(CCCN)c(-c2n[nH]c(-c3nc(C(N)=O)cc4c3cnn4C)n2)c1O [Example AH01, 4-{3-[1-(3-aminopropyl)-4-hydroxy-3-methyl-1H-pyrazol-5-yl]-1H-1,2,4-triazol-5-yl}-1-methyl-1H-pyrazolo[4,3-c]pyridine-6-carboxamide]
5.22 | 0.138 | 5.95 | Cc1cc(-c2nc(-c3nc(C(N)=O)cc4c3cnn4C)c(CN)s2)n(CCCO)n1 [Example AF01, 4-{5-(aminomethyl)-2-[1-(3-hydroxypropyl)-3-methyl-1H-pyrazol-5-yl]-1,3-thiazol-4-yl}-1-methyl-1H-pyrazolo[4,3-c]pyridine-6-carboxamide]
1.95 | 0.0115 | 2.26 | Cc1nn(CCCO)c(-c2nc(-c3nc(C(N)=O)cc4c3cnn4C)c(CN)s2)c1O [Example AF02]
0.16 | 0.0026 | 0.2 | CCn1nc(C)c(O)c1-c1nc(-c2nc(C(N)=O)cc3c2cnn3C)co1 [Example AE01, 4-[2-(1-ethyl-4-hydroxy-3-methyl-1H-pyrazol-5-yl)-1,3-oxazol-4-yl]-1-methyl-1H-pyrazolo[4,3-c]pyridine-6-carboxamide]
